Paper PMC4704022, “Insights on FXR selective modulation. Speculation on bile acid chemical space in the discovery of potent and selective agonists” (Scientific Reports, 2016)
Entries after “also recorded” stand apart in the source; their conditions may differ.

Key:
FXR-LBD = biological target: T1, FXR-LBD (Homo sapiens, UniProt Q96RI1); experiment: Alphascreen coactivator recruitment assay, FXR-LBD with SRC-1 peptide; assay type: biochemical; details: ligand at 2 μM, effect of 6 set as 100%
T1 construct: 10 nM of purified GST-tagged FXR-LBD protein
T1 sequence (Q96RI1 262-486 limits assumed): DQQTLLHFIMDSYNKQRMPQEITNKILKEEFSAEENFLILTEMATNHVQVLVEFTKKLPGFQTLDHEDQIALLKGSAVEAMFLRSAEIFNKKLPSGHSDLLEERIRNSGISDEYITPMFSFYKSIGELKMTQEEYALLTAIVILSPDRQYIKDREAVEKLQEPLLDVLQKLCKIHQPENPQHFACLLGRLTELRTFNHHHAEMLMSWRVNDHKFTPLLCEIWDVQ
Protocol: Figure 7 Coactivator recruitment assay measuring a direct interaction of FXR with SRC-1. Anti-GST-coated acceptor beads captured GST-fusion FXR-LBD and the biotinylated-SRC-1 peptide was captured by the streptavidin donor beads. FXR-LBD recruited SRC-1 in the presence of ligand at 2 μM and, upon illumination at 680 nm, chemical energy is transferred from donor to acceptor beads across the complex streptavidin-donor/Src-1-biotin/ligand/GSTFXR-LBD/anti-GST-acceptor and a signal is produced. Results are expressed as percentage of the effect of 6 arbitrarily settled as 100%. NT is referred to the experiment carried out in absence of ligand. Results are expressed as mean ± standard error.
The relative potency of selected members of this novel family was then investigated by a detailed measurement of concentration-response curve of the 3-deoxy sulfate derivative 9, the corresponding carboxylic acid 10, and the 3β-hydroxyl alcohol 15 and carboxylic acid derivative 17, all sharing the 6α/7α configuration, on FXR transactivation. […] In this assay, the ligand induces the recruitment of the coactivator to the LBD of hFXR.
Anti-GST-coated acceptor beads were used to capture the GST-fusion FXR-LBD, whereas the biotinylated-SRC-1 peptide was captured by the streptavidin donor beads. Upon illumination at 680 nm, chemical energy is transferred from donor to acceptor beads across the complex streptavidin-donor/Src-1-biotin/GSTFXR-LBD/anti-GST-acceptor and a signal is produced. The assay was performed in white, low-volume, 384-well Optiplates (PerkinElmer) using a final volume of 25 μL containing final concentrations of 10 nM of purified GST-tagged FXR-LBD protein, 30 nM biotinylated Src-1 peptide, 20 μg/mL anti-GST acceptor beads acceptor beads, and 10 μg/mL of streptavidin donor bead (PerkinElmer). The assay buffer contained 50 mM Tris (pH 7.4), 50 mM KCl, 0.1% BSA, and 1 mM DTT. […] After the addition of the detection mix (acceptor and donor beads), the plates were incubated in the dark for 4 h at room temperature and then were read in an Envision microplate analyzer (PerkinElmer).

GPBAR1 = biological target: T2, GPBAR1 (Homo sapiens, UniProt Q8TDU6); experiment: GPBAR1 agonism, CRE-luciferase transactivation assay in transfected HEK-293T cells; assay type: cell-based; details: HEK-293T, compounds at 10 μM; TLCA 10 μM as positive control
T2 construct: expressed in transfected cells; host or cells: HEK-293T
T2 sequence (Q8TDU6 1-330): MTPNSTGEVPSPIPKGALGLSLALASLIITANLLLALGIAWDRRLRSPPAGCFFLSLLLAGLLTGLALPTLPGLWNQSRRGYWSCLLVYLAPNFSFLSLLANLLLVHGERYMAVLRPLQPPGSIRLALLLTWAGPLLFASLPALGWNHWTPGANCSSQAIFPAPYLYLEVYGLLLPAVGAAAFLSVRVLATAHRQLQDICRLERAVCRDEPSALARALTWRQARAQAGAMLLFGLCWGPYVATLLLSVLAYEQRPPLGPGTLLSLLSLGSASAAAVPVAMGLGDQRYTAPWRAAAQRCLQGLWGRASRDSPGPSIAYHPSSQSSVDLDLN
Protocol: (A) HEK-293T cells were co-transfected with GPBAR1 and a reporter gene containing a cAMP responsive element in front of the luciferase gene. Twenty-four hour post transfection cells were stimulated with 7–21 (10 μM). Luciferase activity served as a measure of the rise in intracellular cAMP following activation of GPBAR1. […] Twenty-four hour post transfection cells were stimulated with increasing concentrations of each agent: range from 100 nM to 50 μM. Results are expressed as mean ± standard error.
To investigate GPBAR1 activation, HEK-293T cells were transiently transfected with Fugene HD reagent (Promega) using the following vectors: pCMVSPORT6-human GPBAR1, pGL4.29 (Promega), a reporter vector containing a cAMP response element (CRE) cloned upstream to the luciferase reporter gene luc2P and pGL4.70. […] Dose-response curves were performed in HEK-293T cells transfected as described above and treated with increasing concentrations of 9 and 21 (from 100 nM to 50 μM). […] At 18 h post stimulations, cellular lysate was assayed for luciferase and renilla activities using the Dual-Luciferase Reporter assay system (E1980, Promega). Luminescence was measured using Glomax 20/20 luminometer (Promega). Luciferase activities were normalized with Renilla activities.

With `CC[C@H]1[C@@H](O)[C@@H]2[C@H](CC[C@]3(C)[C@@H]([C@H](C)CCC(=O)O)CC[C@@H]23)[C@@]2(C)CCCC[C@@H]12` [compound 10, 6α-ethyl-7α-hydroxy-5β-cholan-24-oic acid] the “Recruitment of SRC-1 coactivator to FXR-LBD (in words)” value (FXR-LBD) was “very potent activity in the recruitment of SRC-1 co-activator” and the “GPBAR1 agonism (in words)” value (GPBAR1) was “inactive towards GPBAR1 in agonistic mode; also recorded: devoid of any activity toward GPBAR1 in agonistic mode”.
